Experiments:
Assay in all cases: selective drug sensitivity score (sDSS, relative to normal bone marrow) (sDSS (score)); higher = more potent and effective on the cell line relative to normal bone marrow cells
Details in all cases: 72 h
[1] = test system: SUP-B15
[2] = test system: NALL-1
[3] = test system: ALL-PO
[4] = test system: P30-OHKUBO
[5] = test system: KOPN-8
[6] = test system: MOLT-4
[7] = test system: COG-LL-394h
[8] = test system: CCRF-CEM
[9] = test system: COG-LL-317
[10] = test system: DND-41
[11] = test system: RCH-ACV
[12] = test system: MOLT-16
[13] = test system: PEER
[14] = test system: JURKAT
[15] = test system: REH
[16] = test system: HPB-ALL
[17] = test system: MN-60
[18] = test system: TANOUE
[19] = test system: COG-LL-319h
[20] = test system: 380
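Further: ALL cell lines in 384-well plates, five doses spanning 10,000-fold, each plate scaled between vehicle and 100 µmol/L benzalkonium chloride controls, sDSS an adapted area-under-curve metric.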

SMILES | selective drug sensitivity score [1] | selective drug sensitivity score [2] | selective drug sensitivity score [3] | selective drug sensitivity score [4] | selective drug sensitivity score [5] | selective drug sensitivity score [6] | selective drug sensitivity score [7] | selective drug sensitivity score [8] | selective drug sensitivity score [9] | selective drug sensitivity score [10] | selective drug sensitivity score [11] | selective drug sensitivity score [12] | selective drug sensitivity score [13] | selective drug sensitivity score [14] | selective drug sensitivity score [15] | selective drug sensitivity score [16] | selective drug sensitivity score [17] | selective drug sensitivity score [18] | selective drug sensitivity score [19] | selective drug sensitivity score [20]
COc1cc(N2CCN(C)CC2)ccc1Nc1nccc(-c2cn(C)c3cnccc23)n1 [AZ191] (top concentration 10000 nM) | -2.72 | 2.88 | 3.58 | -0.72 | 2.18 | -3.32 | -0.72 | -1.42 | 0.58 | 0.08 | 2.38 | -1.32 | -1.92 | -3.02 | 0.48 | -4.72 | -1.92 | -4.62 | -2.92 | -2.42
CN1CC[C@@H](NC(=O)Nc2ccc(C#N)cc2)C[C@@H]1c1nc2ccccc2[nH]1 [Glasdegib] (top concentration 1000 nM) | 0 | 0.1 | 0 | 0 | 0 | 0 | 0 | 0 | 1.5 | 2.9 | 0 | 0 | 0 | 0 | 1.6 | 0.1 | 4.7 | 2.9 | 4.1 | 0
COc1cc(CCc2cc(NC(=O)c3ccc(N4CC(C)NC(C)C4)cc3)n[nH]2)cc(OC)c1 (stereo not given) [AZD4547] (top concentration 1000 nM) | -0.14 | -0.14 | 0.46 | -0.14 | -0.14 | -0.14 | 0.16 | -0.14 | -0.14 | 1.66 | 3.46 | -0.14 | -0.14 | -0.14 | -0.14 | -0.14 | -0.14 | -0.14 | -0.04 | -0.14
C=CC(=O)Nc1cccc(Oc2nc(Nc3ccc(N4CCN(C)CC4)cc3)nc3ccsc23)c1 [Olmutinib] (top concentration 1000 nM) | -0.02 | 5.88 | -0.02 | 1.38 | -0.02 | -0.02 | -0.02 | -0.02 | 0.48 | -0.02 | 1.58 | -0.02 | -0.02 | -0.02 | 2.28 | -0.02 | -0.02 | -0.02 | -0.02 | -0.02
C=CC(=O)Nc1cc(Nc2nccc(-c3cn(C)c4ccccc34)n2)c(OC)cc1N(C)CCN(C)C [Osimertinib] (top concentration 2500 nM) | -2.02 | 0.58 | -0.72 | 1.08 | -0.82 | -3.12 | 1.68 | -0.52 | 0.78 | -0.82 | -1.02 | -0.82 | 1.28 | -4.22 | 0.88 | -0.92 | -3.02 | -5.22 | -4.12 | -3.82
CNC(=O)c1ccc(N2C(=S)N(c3cnc(C#N)c(C(F)(F)F)c3)C(=O)C23CCC3)cc1F [Apalutamide] (top concentration 10000 nM) | 0 | 0 | 0 | 0 | 0 | 0 | 0 | 0 | 0 | 0 | 0 | 0 | 0.1 | 0 | 0 | 0 | 0 | 0.1 | 0 | 0
O=C(O)CC[C@H]1CC[C@@](c2cc(F)ccc2F)(S(=O)(=O)c2ccc(Cl)cc2)CC1 [MK-0752] (top concentration 1000 nM) | 0 | 8.6 | 0 | 2.5 | 0 | 0 | 0 | 0 | 0 | 0.4 | 0.3 | 0 | 0 | 0 | 0 | 0 | 0 | 0 | 0 | 4.6
CC(C)N(CCCNC(=O)Nc1ccc(C(C)(C)C)cc1)C[C@H]1O[C@@H](n2cc(Br)c3c(N)ncnc32)[C@H](O)[C@@H]1O [SGC0946] (top concentration 10000 nM) | -0.62 | 5.58 | 1.58 | 2.58 | -0.72 | 0.08 | -0.82 | 0.88 | -1.12 | -1.02 | -0.82 | 0.78 | 0.88 | -0.42 | 5.18 | 1.18 | -0.72 | -1.12 | -1.12 | -1.12
CCS(=O)(=O)N1CC(CC#N)(n2cc(-c3ncnc4[nH]ccc34)cn2)C1 [Baricitinib] (top concentration 2500 nM) | -1.94 | -1.94 | -1.94 | -1.94 | -1.94 | -1.94 | -1.94 | -1.94 | -1.94 | 3.66 | -1.94 | -1.94 | 0.96 | -1.94 | -1.94 | -1.94 | -1.94 | -1.94 | -1.94 | -1.94
O=C(NOCCO)c1ccc2cncn2c1Nc1ccc(I)cc1F [GDC-0623] (top concentration 2500 nM) | -3 | -0.5 | -3.3 | -2.4 | -1.2 | -3.3 | -3.4 | -1 | -0.8 | 0.2 | -3.4 | -1.6 | -0.1 | -3.2 | -3.4 | 3.6 | -3.4 | -3.4 | -2.1 | -0.4
CCCCC(=O)OCC(=O)[C@]1(O)Cc2c(O)c3c(c(O)c2[C@@H](O[C@H]2C[C@H](NC(=O)C(F)(F)F)[C@H](O)[C@H](C)O2)C1)C(=O)c1c(OC)cccc1C3=O [Valrubicin] (top concentration 5000 nM) | 12.2 | -1.82 | -2.62 | 5.98 | 10.2 | 10.8 | 7.78 | 10.9 | 17 | -1.02 | 11.8 | 18.1 | -9.32 | 4.98 | 12.1 | -4.12 | -3.92 | -12.7 | 12.9 | 13
C=CC[C@@H]1/C=C(\C)C[C@H](C)C[C@H](OC)[C@H]2O[C@@](O)(C(=O)C(=O)N3CCCC[C@H]3C(=O)O[C@H](/C(C)=C/[C@@H]3CC[C@@H](O)[C@H](OC)C3)[C@H](C)[C@@H](O)CC1=O)[C@H](C)C[C@@H]2OC [Tacrolimus] (top concentration 10000 nM) | 18.3 | 0.48 | 2.08 | 16.1 | 4.68 | 1.38 | 3.08 | 2.78 | 0.68 | 0.68 | 10.7 | 12.1 | 1.38 | 1.78 | 2.68 | 0.28 | -0.32 | -0.72 | 12.7 | 1.88
O=C(O)CCCCC(CCSCc1ccccc1)SCc1ccccc1 (stereo not given) [Devimistat (CPI-613)] (top concentration 10000 nM) | 0 | 0.1 | 0 | 0 | 0 | 0 | 0 | 0 | 0 | 0.6 | 0 | 0 | 0.1 | 0 | 0 | 0 | 0.1 | 1.8 | 1.3 | 1.9
COc1cc2ncnc(Nc3ccc(F)c(Cl)c3)c2cc1OCCCN1CCOCC1 [Gefitinib] (top concentration 10000 nM) | 1.56 | 1.06 | 4.16 | -0.04 | 2.96 | -0.34 | 0.16 | 0.56 | 0.36 | 1.16 | 1.66 | 3.36 | 2.76 | -1.44 | 2.36 | -1.14 | 0.66 | -1.84 | 5.66 | -3.04
O=C(NCc1ccncc1)C12CC3CC(C1)CC(c1ccc(Cl)cc1)(C3)C2 (top concentration 50000 nM) | 0.18 | 3.58 | 3.28 | 3.18 | 4.48 | 1.98 | 2.88 | 2.28 | -0.12 | 4.08 | 4.08 | 1.58 | 2.88 | 3.18 | 5.18 | 1.88 | -0.02 | -0.72 | -0.62 | 0.38
C[C@@H]1CN(C(=O)c2ccc(NC(=O)c3cc(O[C@H](C)c4c(Cl)ccc(F)c4Cl)c(N)nn3)cc2)C[C@H](C)N1 [Ensartinib] (top concentration 1000 nM) | 3.86 | -2.84 | 0.26 | 2.06 | 1.16 | -0.54 | 0.86 | -0.34 | -2.34 | -2.84 | -1.44 | -0.74 | 1.96 | -2.54 | -2.24 | -2.84 | -2.84 | -2.84 | -2.64 | 0.06
CCCCCCCCCCCCCCCCCCOP(=O)([O-])OC1CC[N+](C)(C)CC1 [Perifosine] (top concentration 2500 nM) | 1.04 | -0.36 | 0.94 | -0.36 | -0.26 | -0.36 | -0.36 | -0.16 | -0.36 | -0.36 | 2.34 | -0.36 | -0.36 | -0.36 | -0.36 | 3.64 | -0.36 | -0.36 | -0.26 | -0.16

Reference: the supplement of paper PMC8967900
